Laboratory results: paper PMC13198257, “An aerosolized dual-action autotaxin inhibitor-PPARγ agonist for the treatment of pulmonary fibrosis” (Cell Reports Medicine, 2026)

System: lung gene expression
Assay: RNA sequencing of lung tissue (BLM/EL244 vs BLM)
Assay type: in vivo, mouse
Method: RNA quality was assessed using an Agilent TapeStation 4150 with the High Sensitivity […] ScreenTape (Agilent), according to the manufacturer’s protocols. For library preparation, the QuantSeq 3’mRNA-Seq Library Prep Kit (Lexogen) was used according to manufacturer’s instructions. Briefly, 500 ng of RNA from each sample was used for first-strand synthesis, followed by RNA template removal, and second-strand synthesis initiated by random primers. In-line barcodes were introduced at this step, and this was followed by magnetic bead-based purification. The resulting libraries were amplified for 15 cycles and re-purified, with quantity and quality assessed on a Qubit 4 Fluorometer with the Invitrogen Qubit dsDNA HS Assay and an Agilent Tapestation 4150 with the High Sensitivity D1000 assay kit, respectively. The quantified libraries were pooled equimolarly; 50ng of total library mix was used for Adapter Conversion PCR Amplification using the Universal Library Conversion Kit (App-A), Version: V1.0 (MGI Tech Co., Ltd.), according to the manufacturer’s instructions.
The quantity and quality of the purified adapter conversion PCR (AC-PCR) product were evaluated on a Qubit 4 Fluorometer with the Invitrogen Qubit dsDNA HS Assay and on an Agilent Tapestation 4150 with the High Sensitivity D1000 assay kit, respectively. This was followed by DNA denaturation, Single-Strand Circularisation, Enzymatic Digestion, Enzymatic Digestion Product Cleanup and Quality Control steps on 1 pmol of AC-PCR product, according to the Universal Library Conversion Kit (App-A) User Manual (Version: A3).
Finally, 60 fmol of ssCirDNA were used for DNB preparation and sequencing on a DNBSEQ-G400 platform at the BSRC Alexander Fleming Genomics Facility, using a G400 App-A FCS SE100 High-throughput Sequencing Set (MGI Tech Co., Ltd.), according to the manufacturer’s instructions.
Alignment of the FASTQ files was performed against the mouse genome build mm10 using a custom Bash script.[143] Read counting on the 3′ UTRs and differential expression analysis were conducted using the metaseqR2 bioconductor package.[144] Genes corresponding to the following biotypes were excluded: polymorphic_pseudogene, processed_transcript, pseudogene, IG_V_pseudogene, misc_RNA, IG_C_gene, IG_J_gene, IG_D_gene, IG_LV_gene, TR_V_gene, TR_V_pseudogene, TEC, and processed_pseudogene. Gene counts were normalized with DESEQ[145] through metaseqR2. Genes with more than 10 counts in at least 50% of the samples were kept for further processing. For differential expression analysis, the PANDORA algorithm[146] was used to estimate a meta p-value integrating the results from the DESEQ, DESEQ2,[147] edgeR,[148] limma,[149] NBPSeq,[150] and NOISeq[151] algorithms. All additional parameters were set to default values.
Pathway enrichment analysis was performed for the Gene Ontology Biological process (BP) and Molecular Function (MF) terms through GeneCodis 4.[152] The volcano plots, scatterplots, Venn diagrams, and dot plots were generated using the ggplot2 Bioconductor package.

## O=C1NC(=O)C(Cc2ccc(OCCC3CCN(C(=O)OCc4cc(Cl)cc(Cl)c4)CC3)cc2)S1 (stereo not drawn) [EL244, 3,5-dichlorobenzyl 4-(2-(4-((2,4-dioxothiazolidin-5-yl)methyl)phenoxy)ethyl)piperidine-1-carboxylate]
BLM/EL244 vs BLM, lung tissue
  Rbm24 nFC: 2.29
  Rdh12 log2 nFC: 1.74
  Rdh12 nFC: 3.34
  Retnlg log2 nFC: 1.46
  Retnlg nFC: 2.74
  Ryr2 log2 nFC: 2.14
  Ryr2 nFC: 4.39
  S1pr5 log2 nFC: 1.64
  S1pr5 nFC: 3.12
  S100a8 log2 nFC: 1.52
  S100a8 nFC: 2.86
  S100a9 log2 nFC: 2.11
  S100a9 nFC: 4.32
  Scel log2 nFC: 1.31
  Scel nFC: 2.47
  Shank3 log2 nFC: 1.61
  Shank3 nFC: 3.05
  Slc38a4 log2 nFC: 1.12
  Slc38a4 nFC: 2.17
  Sln log2 nFC: 2.01
  Sln nFC: 4.02
  Smad6 log2 nFC: 1.18
  Smad6 nFC: 2.26
  Smpx log2 nFC: 2.34
  Smpx nFC: 5.08
  Smyd1 log2 nFC: 1.73
  Smyd1 nFC: 3.32
  Snhg11 log2 nFC: 1.40
  Snhg11 nFC: 2.64
  Snx21 log2 nFC: 1.15
  Snx21 nFC: 2.21
  Sox18 log2 nFC: 1.91
  Sox18 nFC: 3.76
  Spink5 log2 nFC: 1.36
  Spink5 nFC: 2.57
  Tbata log2 nFC: 1.72
  Tbata nFC: 3.30
  Tcap log2 nFC: 1.73
  Tcap nFC: 3.32
  Tex11 log2 nFC: 1.83
  Tex11 nFC: 3.55
  Tmem182 log2 nFC: 2.26
  Tmem182 nFC: 4.78
  Tmem132d log2 nFC: 2.38
  Tmem132d nFC: 5.19
  Tnnc1 log2 nFC: 2.18
  Tnnc1 nFC: 4.53
  Tnni3 log2 nFC: 2.31
  Tnni3 nFC: 4.95
  Tnnt2 log2 nFC: 1.77
  Tnnt2 nFC: 3.42
  Ttn log2 nFC: 2.53
  Ttn nFC: 5.78
  Upk3b log2 nFC: 1.53
  Upk3b nFC: 2.88
  Xndc1 log2 nFC: 1.14
  Xndc1 nFC: 2.21
  Zbtb16 log2 nFC: 1.33
  Zbtb16 nFC: 2.51
  Zmynd10 log2 nFC: 1.28
  Zmynd10 nFC: 2.44
DEG 1810010H24Rik, nFC: normalised fold change
  1810010H24Rik log2 nFC BLM/EL244 vs BLM: 0.90
DEG 1810020O05Rik, nFC: normalised fold change
  1810020O05Rik log2 nFC BLM/EL244 vs BLM: 1.58
DEG 2410004I01Rik, nFC: normalised fold change
  2410004I01Rik log2 nFC BLM/EL244 vs BLM: 1.80
DEG 9330159F19Rik, nFC: normalised fold change
  9330159F19Rik log2 nFC BLM/EL244 vs BLM: 1.78
DEG 9530026P05Rik, nFC: normalised fold change
  9530026P05Rik log2 nFC BLM/EL244 vs BLM: 3.17
DEG A3galt2, nFC: normalised fold change
  A3galt2 log2 nFC BLM/EL244 vs BLM: 2.32
DEG AA467197
  log2 nFC BLM/EL244 vs BLM: -1.39
DEG Abca8a, nFC: normalised fold change
  Abca8a log2 nFC BLM/EL244 vs BLM: 0.75
DEG Abi3bp, nFC: normalised fold change
  Abi3bp log2 nFC BLM/EL244 vs BLM: 1.00
DEG Acaa1b, nFC: normalised fold change
  Acaa1b log2 nFC BLM/EL244 vs BLM: 1.43
DEG Acbd4, nFC: normalised fold change
  Acbd4 log2 nFC BLM/EL244 vs BLM: 0.86
DEG Acot1, nFC: normalised fold change
  Acot1 log2 nFC BLM/EL244 vs BLM: 1.08
DEG Acoxl, nFC: normalised fold change
  Acoxl log2 nFC BLM/EL244 vs BLM: 1.23
DEG Actc1, nFC: normalised fold change
  Actc1 log2 nFC BLM/EL244 vs BLM: 1.28
DEG Adam3, nFC: normalised fold change
  Adam3 log2 nFC BLM/EL244 vs BLM: 1.67
DEG Adam12
  log2 nFC BLM/EL244 vs BLM: -1.57
DEG Adamts12
  log2 nFC BLM/EL244 vs BLM: -1.47
DEG Adh7, nFC: normalised fold change
  Adh7 log2 nFC BLM/EL244 vs BLM: 1.02
DEG Alas2, nFC: normalised fold change
  Alas2 log2 nFC BLM/EL244 vs BLM: 1.58
DEG Aldh1a1, nFC: normalised fold change
  Aldh1a1 log2 nFC BLM/EL244 vs BLM: 0.78
DEG Ankrd37
  log2 nFC BLM/EL244 vs BLM: -1.50
DEG Ankrd44, nFC: normalised fold change
  Ankrd44 log2 nFC BLM/EL244 vs BLM: 0.84
DEG Ankrd63, nFC: normalised fold change
  Ankrd63 log2 nFC BLM/EL244 vs BLM: 1.34
DEG Aox3, nFC: normalised fold change
  Aox3 log2 nFC BLM/EL244 vs BLM: 1.07
DEG Aqp9, nFC: normalised fold change
  Aqp9 log2 nFC BLM/EL244 vs BLM: 1.66
DEG Ar, nFC: normalised fold change
  Ar log2 nFC BLM/EL244 vs BLM: 1.04
DEG Arhgap28, nFC: normalised fold change
  Arhgap28 log2 nFC BLM/EL244 vs BLM: 1.14
DEG Arhgef38, nFC: normalised fold change
  Arhgef38 log2 nFC BLM/EL244 vs BLM: 0.87
DEG Arl4a, nFC: normalised fold change
  Arl4a log2 nFC BLM/EL244 vs BLM: 0.70
DEG Armcx4
  log2 nFC BLM/EL244 vs BLM: -1.32
DEG Arrdc2, nFC: normalised fold change
  Arrdc2 log2 nFC BLM/EL244 vs BLM: 1.24
DEG Asgr1, nFC: normalised fold change
  Asgr1 log2 nFC BLM/EL244 vs BLM: 1.80
DEG Atp2a3, nFC: normalised fold change
  Atp2a3 log2 nFC BLM/EL244 vs BLM: 0.83
DEG Atp6v1c2, nFC: normalised fold change
  Atp6v1c2 log2 nFC BLM/EL244 vs BLM: 1.03
DEG Baiap3, nFC: normalised fold change
  Baiap3 log2 nFC BLM/EL244 vs BLM: 1.24
DEG Bbof1, nFC: normalised fold change
  Bbof1 log2 nFC BLM/EL244 vs BLM: 1.11
DEG Bcl2a1d
  log2 nFC BLM/EL244 vs BLM: -1.29
DEG Bex2, nFC: normalised fold change
  Bex2 log2 nFC BLM/EL244 vs BLM: 1.46
DEG Bmp6, nFC: normalised fold change
  Bmp6 log2 nFC BLM/EL244 vs BLM: 1.07
DEG Bpifa1, nFC: normalised fold change
  Bpifa1 log2 nFC BLM/EL244 vs BLM: 1.12
DEG C1qa
  log2 nFC BLM/EL244 vs BLM: -1.44
DEG C1qb
  log2 nFC BLM/EL244 vs BLM: -1.51
DEG C1qc
  log2 nFC BLM/EL244 vs BLM: -1.56
DEG C1qtnf6
  log2 nFC BLM/EL244 vs BLM: -1.38
DEG C3ar1
  log2 nFC BLM/EL244 vs BLM: -1.58
DEG C130080G10Rik, nFC: normalised fold change
  C130080G10Rik log2 nFC BLM/EL244 vs BLM: 3.58
DEG Car3, nFC: normalised fold change
  Car3 log2 nFC BLM/EL244 vs BLM: 1.57
DEG Casq2, nFC: normalised fold change
  Casq2 log2 nFC BLM/EL244 vs BLM: 2.36
DEG Cbr2, nFC: normalised fold change
  Cbr2 log2 nFC BLM/EL244 vs BLM: 0.91
DEG Ccdc153, nFC: normalised fold change
  Ccdc153 log2 nFC BLM/EL244 vs BLM: 0.79
DEG Ccdc171, nFC: normalised fold change
  Ccdc171 log2 nFC BLM/EL244 vs BLM: 1.04
DEG Ccl2
  log2 nFC BLM/EL244 vs BLM: -1.43
DEG Ccl8
  log2 nFC BLM/EL244 vs BLM: -1.54
